Experimental data published in US6914045B2, “Glycopeptide antibiotics” (Wyeth Holdings Corporation, priority 2001, dated 2005).

Assays:
Experiment in all cases: in vitro antibacterial evaluation, MIC by broth dilution
Format in all cases: cell-based
Enterococcus sp. = conditions: broth dilution, 18 hours at 35° C.; for MIC Enterococcus faecalis (GC 2242): strain GC 2242; for MIC Enterococcus faecalis (GC 4552): strain GC 4552
Procedure, shortened: (§1)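 Inoculum 5×10^5 CFU/mL; concentrations 64 to 0.06 μg/mL; MIC defined as lowest inhibitory level. Conducted by broth dilution under NCCLS guidelines.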

Escherichia coli = conditions: 18 hours at 35° C.
Procedure, shortened: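 Read-out: the lowest concentration at which the test strain fails to grow. Serial dilutions (64-0.06 μg/mL) in Muller-Hinton II […], 5×10^5 CFU/mL inoculum, NCCLS M7-A2 procedure.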

Staphylococcus sp. = conditions: broth dilution, 18 hours at 35° C.
Procedure, shortened: as §1

Streptococcus sp. = conditions: broth dilution, 18 hours at 35° C.; for MIC Streptococcus agalactiae (GC 4564): strain GC 4564; for MIC Streptococcus pyogenes (ID-3187): strain ID-3187
Procedure, shortened: as §1

[1] = Enterococcus faecalis (ATCC 29212)
[2] = Enterococcus faecalis (GC 4553)
[3] = Enterococcus faecalis (GC 4554)

CC(C)CC(=O)OC1C(OC2C(CO)OC(Oc3ccc(CC4NC(=O)C(C(C)c5cccc(F)c5)NC(=O)CNC(=O)C(CO)NC(=O)C(C(O)C5CNC(=N)N5C5OC(CO)C(O)C(O)C5O)NC(=O)C(C(O)C5CNC(=N)N5)NC4=O)cc3)C(O)C2O)OC(CO)C(O)C1O (stereo not drawn) [Example 264a, Cyclo[glycyl-3-fluoro-β-methylphenylalanyl-O-[4-O-[2-O-(3-methylbutanoyl)hexopyranosyl]-hexopyranosyl]tyrosyl-3-(2-iminoimidazolidin-4-yl)seryl-3-(3-hexopyranosyl-2-iminoimidazolidin-4-yl)serylseryl]]
4 µg/mL: MIC Escherichia coli (GC 4560) (Escherichia coli) | MIC Coagulase Negative Staphylococcus (GC 4548) (Staphylococcus sp.) | MIC Coagulase Negative Staphylococcus (GC 4549) (Staphylococcus sp.) | MIC Coagulase Negative Staphylococcus (GC 4548) (Staphylococcus sp.; strain GC 4548) | MIC Coagulase Negative Staphylococcus (GC 4549) (Staphylococcus sp.; strain GC 4549) | MIC Streptococcus pyogenes (ID-3187) (Streptococcus sp.)
64 µg/mL: MIC Enterococcus faecalis (ATCC 29212) (Enterococcus sp.; [1]) | MIC Enterococcus faecium (GC 4556) (Enterococcus sp.; Enterococcus faecium (GC 4556)) | MIC Enterococcus faecalis (ATCC 29212) (Enterococcus sp.; strain ATCC 29212) | MIC Enterococcus faecalis (GC 2242) (Enterococcus sp.) | MIC Enterococcus faecium (GC 4556) (Enterococcus sp.; strain GC 4556) | MIC Escherichia coli (ATCC 25922) (Escherichia coli)
32 µg/mL: MIC Enterococcus faecium (GC 4557) (Enterococcus sp.; Enterococcus faecium (GC 4557)) | MIC Enterococcus faecium (GC 4557) (Enterococcus sp.; strain GC 4557)
8 µg/mL: MIC Coagulase Negative Staphylococcus (GC 4547) (Staphylococcus sp.) | MIC Staphylococcus aureus (GC 4544) (Staphylococcus sp.) | MIC Staphylococcus aureus (GC 4545) (Staphylococcus sp.) | MIC Staphylococcus aureus-SMITH (GC 4543) (Staphylococcus sp.) | MIC Staphylococcus haemolyticus (GC 4546) (Staphylococcus sp.) | MIC Staphylococcus aureus (GC 4544) (Staphylococcus sp.; strain GC 4544) | MIC Staphylococcus aureus (GC 4545) (Staphylococcus sp.; strain GC 4545) | MIC Staphylococcus haemolyticus (GC 4546) (Staphylococcus sp.; strain GC 4546) | MIC Coagulase Negative Staphylococcus (GC 4547) (Staphylococcus sp.; strain GC 4547) | MIC Staphylococcus aureus-SMITH (GC 4543) (Staphylococcus sp.; strain SMITH GC 4543) | MIC Streptococcus agalactiae (GC 4564) (Streptococcus sp.)
>64 µg/mL: MIC Enterococcus avium (GC 4558) (Enterococcus sp.; Enterococcus avium (GC 4558)) | MIC Enterococcus faecalis (GC 4553) (Enterococcus sp.; [2]) | MIC Enterococcus faecalis (GC 4554) (Enterococcus sp.; [3]) | MIC Enterococcus faecium (GC 2243) (Enterococcus sp.; Enterococcus faecium (GC 2243)) | MIC Enterococcus faecium (GC 2243) (Enterococcus sp.; strain GC 2243) | MIC Enterococcus faecalis (GC 4552) (Enterococcus sp.) | MIC Enterococcus faecalis (GC 4553) (Enterococcus sp.; strain GC 4553) | MIC Enterococcus faecalis (GC 4554) (Enterococcus sp.; strain GC 4554) | MIC Enterococcus avium (GC 4558) (Enterococcus sp.; strain GC 4558) | MIC Escherichia coli (GC 4559) (Escherichia coli)
16 µg/mL: MIC Coagulase Negative Staphylococcus (GC 4551) (Staphylococcus sp.) | MIC Staphylococcus aureus (ATCC 29213) (Staphylococcus sp.) | MIC Staphylococcus aureus (GC 1131) (Staphylococcus sp.) | MIC Staphylococcus aureus (GC 4541) (Staphylococcus sp.) | MIC Staphylococcus aureus (GC 4542) (Staphylococcus sp.) | MIC Staphylococcus aureus (ATCC 29213) (Staphylococcus sp.; strain ATCC 29213) | MIC Staphylococcus aureus (GC 1131) (Staphylococcus sp.; strain GC 1131) | MIC Staphylococcus aureus (GC 4541) (Staphylococcus sp.; strain GC 4541) | MIC Staphylococcus aureus (GC 4542) (Staphylococcus sp.; strain GC 4542) | MIC Coagulase Negative Staphylococcus (GC 4551) (Staphylococcus sp.; strain GC 4551)

CC(C)CC(=O)OC1C(O)C(CO)OC(OC2C(CO)OC(Oc3ccc(CC4NC(=O)C(C(C)c5cccc(F)c5)NC(=O)CNC(=O)C(CO)NC(=O)C(C(O)C5CNC(=N)N5C5OC(CO)C(O)C(O)C5O)NC(=O)C(C(O)C5CNC(=N)N5)NC4=O)cc3)C(O)C2O)C1O (stereo not drawn) [Example 264b, Cyclo[glycyl-3-fluoro-β-methylphenylalanyl-O-[4-O-[3-O-(3-methylbutanoyl)hexopyranosyl]-hexopyranosyl]tyrosyl-3-(2-iminoimidazolidin-4-yl)seryl-3-(3-hexopyranosyl-2-iminoimidazolidin-4-yl)serylseryl]]
>64 µg/mL: MIC Escherichia coli (GC 4559) (Escherichia coli)
8 µg/mL: MIC Enterococcus faecium (GC 4557) (Enterococcus sp.; Enterococcus faecium (GC 4557)) | MIC Enterococcus faecium (GC 4557) (Enterococcus sp.; strain GC 4557) | MIC Coagulase Negative Staphylococcus (GC 4551) (Staphylococcus sp.) | MIC Staphylococcus aureus (ATCC 29213) (Staphylococcus sp.) | MIC Staphylococcus aureus (GC 1131) (Staphylococcus sp.) | MIC Staphylococcus aureus (GC 4541) (Staphylococcus sp.) | MIC Staphylococcus aureus (GC 4542) (Staphylococcus sp.) | MIC Staphylococcus aureus (GC 4544) (Staphylococcus sp.) | MIC Staphylococcus aureus-SMITH (GC 4543) (Staphylococcus sp.) | MIC Staphylococcus aureus (ATCC 29213) (Staphylococcus sp.; strain ATCC 29213) | MIC Staphylococcus aureus (GC 1131) (Staphylococcus sp.; strain GC 1131) | MIC Staphylococcus aureus (GC 4541) (Staphylococcus sp.; strain GC 4541) | MIC Staphylococcus aureus (GC 4542) (Staphylococcus sp.; strain GC 4542) | MIC Staphylococcus aureus (GC 4544) (Staphylococcus sp.; strain GC 4544) | MIC Coagulase Negative Staphylococcus (GC 4551) (Staphylococcus sp.; strain GC 4551) | MIC Staphylococcus aureus-SMITH (GC 4543) (Staphylococcus sp.; strain SMITH GC 4543)
64 µg/mL: MIC Enterococcus avium (GC 4558) (Enterococcus sp.; Enterococcus avium (GC 4558)) | MIC Enterococcus faecalis (ATCC 29212) (Enterococcus sp.; [1]) | MIC Enterococcus faecalis (GC 4553) (Enterococcus sp.; [2]) | MIC Enterococcus faecalis (GC 4554) (Enterococcus sp.; [3]) | MIC Enterococcus faecium (GC 2243) (Enterococcus sp.; Enterococcus faecium (GC 2243)) | MIC Enterococcus faecium (GC 4556) (Enterococcus sp.; Enterococcus faecium (GC 4556)) | MIC Enterococcus faecalis (ATCC 29212) (Enterococcus sp.; strain ATCC 29212) | MIC Enterococcus faecium (GC 2243) (Enterococcus sp.; strain GC 2243) | MIC Enterococcus faecalis (GC 4552) (Enterococcus sp.) | MIC Enterococcus faecalis (GC 4553) (Enterococcus sp.; strain GC 4553) | MIC Enterococcus faecalis (GC 4554) (Enterococcus sp.; strain GC 4554) | MIC Enterococcus faecium (GC 4556) (Enterococcus sp.; strain GC 4556) | MIC Enterococcus avium (GC 4558) (Enterococcus sp.; strain GC 4558) | MIC Escherichia coli (ATCC 25922) (Escherichia coli)
4 µg/mL: MIC Escherichia coli (GC 4560) (Escherichia coli) | MIC Coagulase Negative Staphylococcus (GC 4547) (Staphylococcus sp.) | MIC Coagulase Negative Staphylococcus (GC 4548) (Staphylococcus sp.) | MIC Coagulase Negative Staphylococcus (GC 4549) (Staphylococcus sp.) | MIC Staphylococcus aureus (GC 4545) (Staphylococcus sp.) | MIC Staphylococcus haemolyticus (GC 4546) (Staphylococcus sp.) | MIC Staphylococcus aureus (GC 4545) (Staphylococcus sp.; strain GC 4545) | MIC Staphylococcus haemolyticus (GC 4546) (Staphylococcus sp.; strain GC 4546) | MIC Coagulase Negative Staphylococcus (GC 4547) (Staphylococcus sp.; strain GC 4547) | MIC Coagulase Negative Staphylococcus (GC 4548) (Staphylococcus sp.; strain GC 4548) | MIC Coagulase Negative Staphylococcus (GC 4549) (Staphylococcus sp.; strain GC 4549) | MIC Streptococcus agalactiae (GC 4564) (Streptococcus sp.) | MIC Streptococcus pyogenes (ID-3187) (Streptococcus sp.)
32 µg/mL: MIC Enterococcus faecalis (GC 2242) (Enterococcus sp.)
